pIC50: −log10 of the molar value.
Experiments:
[1] = test system: LNCaP prostate cancer xenograft; assay: Human prostate cancer xenograft in nude mice, oral dosing; format: in vivo; details: oral 100 mg/Kg daily 28 days
Method: 3×10^6 LNCaP cells suspended in matrigel were subcutaneously injected (on the right flank) into 6 week old male athymic nude mice. Tumors were measured as described above. Treatment with CB-03-06 and controls compounds was initiated after the tumor had reached 50 mm^3. […] Oral dosing was daily (100 mg/Kg in 200 microL/mouse) for 28 consecutive days. Results were plotted as average change in tumor volume relative to the start of treatment.

[2] = test system: PSA secretion from LNCaP cells; assay: PSA secretion Elisa; format: cell-based; details: Homo sapiens, 48 h, read-out: inhibition of PSA secretion IC50
Method: (§1) Prostate-specific antigen, or PSA, is a protein produced by cells of the prostate gland. The PSA test measures the level of PSA in a person's blood. The blood level of PSA is often elevated in men with prostate cancer and it used as surrogate marker to test prostate cancer progression in human population. […] LNCaP cells were seeded in 96-well flat bottom culture plates in media containing charcoal stripped serum with or without 10 nM DHT. […] After 48 hours incubation with test compounds, supernatants were harvested and tested with an Elisa assay for PSA and the same cells were lysed for cell viability assessment.

[3] = test system: MiaPaca-2 pancreatic tumor xenograft; assay: Human pancreatic tumor xenograft in nude mice; format: in vivo; details: for in vivo antitumor activity compared with Cyproterone Acetate: Examples 5 and 6
Method: Cortexolone 17α-benzoate and Cyproterone Acetate were separately diluted in DMSO/2-hydroxypropyl β-cyclodextrin (vehicle).
The test was carried out comparing the anti-tumor activity of cortexolone 17α-benzoate at two different dosages (8.0 mg/kg, corresponding approximately at 230 μM, and 40 mg/kg, corresponding approximately at 1150 μM), versus the vehicle (i.e. 0.4% (v/v) tween 80 and 0.5% (w/v) carboxymethylcellulose in normal saline) and versus the comparator Cyproterone Acetate at two different dosages (7.4 mg/kg and 37 mg/kg).
1×10^6 MiaPaca-2 cells suspended in matrigel were sub-cutaneously injected into 6 week old athymic nude mice.
The treatment with the tested compounds, with the vehicle and with the comparative compound, was initiated after the tumor volume has reached 50 mm^3 after transplantation. All compounds were injected 100 μL/mouse of low dose solution (approximately 230 μM) or 100 μL/mouse of high dose solution (approximately 1150 μM) of cortexolone 17α-benzoate, vehicle and Cyproterone Acetate, respectively. Compounds and controls were administered subcutaneously daily for 28 days.
Tumors were measured every 4 days with a digital caliper.
The results are plotted in FIG. 1 as average change in tumor volume relative to the start of treatment. Tumor volume was calculated according to the formula 0.5236(r1)^2(r2) where r1<r2.
Error bars are the SEM for 7 to 10 mice per treatment group. P values were calculated according to the Student's t test.
Cortexolone 17α-valerate-21-propionate and Cyproterone Acetate were separately diluted in DMSO/2-hydroxypropyl β-cyclodextrin (vehicle).
The test was carried out comparing the anti-tumor activity of cortexolone 17α-valerate-21-propionate at two different dosages (approximately 8.6 mg/kg and 43 mg/kg) versus the vehicle (i.e. 0.4% (v/v) tween 80 and 0.5% (w/v) carboxymethylcellulose in normal saline) and versus the comparator Cyproterone Acetate at two different dosages (7.4 mg/kg and 37 mg/kg).
1×10^6 MiaPaca-2 cells suspended in matrigel were subcutaneously injected into 6 week old athymic nude mice.
The treatment with the tested compound, with the vehicle and with the comparative compound was initiated after the tumor has reached a volume of 50 mm^3 after implantation, injecting subcutaneously 100 μL/mouse of low dose solution (approximately 230 μM) or 100 μL/mouse of high dose solution (approximately 1150 μM) of cortexolone 17α-valerate-21-propionate, vehicle and Cyproterone Acetate, respectively. Compounds and controls were administered subcutaneously daily for 28 days. Tumors were measured every 4 days with a digital caliper.
The results are plotted in FIG. 2 as average change in tumor volume relative to the start of treatment. Tumor volume was calculated according to the formula 0.5236(r1)^2(r2) where r1<r2.
Cyproterone acetate (CPA), a well-known anti-androgen, was used as control. Briefly 1×10^6 MiaPaca2 cells suspended in matrigel were subcutaneously (sc) injected into 6 week old male athymic nude mice. Tumors were measured every 4 days with a digital caliper. Tumor volume was calculated according to the formula: 0.5236(r1)2(r2) where r1<r2. Treatment with CB-03-06 and control compounds were initiated after the tumor had reached 50 mm^3. Compounds diluted in DMSO/2-hydroxypropyl b-cyclodextrin (vehicle) were subcutaneously injected daily (100 microL/mouse) at the concentration of 40 mg/Kg daily for 28 consecutive days.

[4] = In vitro metabolism in plasma; format: in vitro ADME, rat; details: 37 C
Method: To obtain some insight on the metabolism of CB-03-06 in human and rat plasma, a specific assay was designed. Briefly, the compound was incubated at different time points in human and rat plasma at 37 C. After incubation, the samples were tested for presence of the intact compound by liquid chromatography.

LNCaP = assay: Cell viability of the cells of the PSA assay; format: cell-based; details: Homo sapiens, 48 h, read-out: cell viability IC50
Method: as §1

[5] = In vivo pharmacokinetics in plasma; details: mice; for AUC: mouse, plasma
Method: The pharmacokinetic of CB-03-06 was evaluated in plasma of mice after intravenous (iv), subcutaneous (SC) and oral administration (PO).
Mice (3 per group) were administered with the following doses and blood was collected at the indicated times. Plasma samples were analyzed by HPLC-MS/MS.

SMILES	anti-tumor activity, change in tumor volume [1]	pIC50 [2]	pancreatic tumor size relative to the size when treatment was initiated ([3]; Example 5, MiaPaca-2 xenograft, nude mice, SC daily 28 days, high dose of cortexolone 17α-benzoate (40 mg/kg))	pancreatic tumor size relative to the initial size ([3]; Example 22, MiaPaca2 xenograft, male nude mice, 40 mg/Kg SC daily 28 days, treatment period)	Median survival ([3]; Example 22, MiaPaca2 xenograft, 40 mg/Kg SC daily 28 days)	in vivo antitumor activity compared with Cyproterone Acetate ([3]; MiaPaca-2 xenograft)	degradation in rat compared to human plasma [4]	intact compound, % of initial concentration ([4]; rat plasma, through 8 hours)	pIC50 (LNCaP)	body exposure relative to subcutaneous administration ([5]; intravenously)	body exposure relative to subcutaneous administration ([5]; orally)	AUC ([5]; PO 40 mg/kg)	AUC ([5]; SC 40 mg/kg)	AUC ([5]; iv 20 mg/kg)	pancreatic tumor size relative to the initial tumor size ([3]; Example 6, MiaPaca-2 xenograft, nude mice, SC daily 28 days, for the time of treatment)
C[C@]12CCC(=O)C=C1CC[C@@H]1[C@@H]2CC[C@@]2(C)[C@H]1CC[C@]2(OC(=O)c1ccccc1)C(=O)CO [CB-03-06, cortexolone 17α-benzoate]	strong anti-tumor activity against prostate cancer	5.40	less than 5 fold	less than 5 fold	70 days	antitumor activity higher than Cyproterone Acetate	degrades faster in rat compared to human plasma	over 90%	4.92	50%	17%	276 ng·h/mL	1620 ng·h/mL	896 ng·h/mL	–
CCCCC(=O)O[C@]1(C(=O)COC(=O)CC)CC[C@H]2[C@@H]3CCC4=CC(=O)CC[C@]4(C)[C@H]3CC[C@@]21C [CB-03-10, cortexolone 17α-valerate-21-propionate]	–	–	–	–	–	antitumor activity higher than Cyproterone Acetate	–	–	–	–	–	–	–	–	less than 5 fold

Reference: patent US10231980B2, “Cortexolone 17alpha-benzoate for use in the treatment of tumours” (COSMO TECHNOLOGIES LTD., priority 2014, dated 2019)
